# Experimental data: paper PMC9706920, “Aryloxypropanolamine targets amyloid aggregates and reverses Alzheimer-like phenotypes in Alzheimer mouse models” (Alzheimer's Research & Therapy, 2022)
# Biological target: T1, CYP 2D6 (Homo sapiens, UniProt P10635)
# T1 construct: contained human liver microsomes (0.25 mg/ml); from tissue; host or cells: human liver microsomes
# Experiment: CYP450 inhibition assay, 2D6
# Assay type: in vitro ADME
# Conditions: YIAD002 10 μM, human liver microsomes; weak or no inhibition; read-out: CYP 2D6 inhibition, IC50 (inhibition criteria)
# Experimental: Incubation mixtures for Cytochrome P450s (CYPs) inhibition assay contained human liver microsomes (0.25 mg/ml), 0.1 M phosphate buffer (pH 7.4), 10 μM of YIAD002, and an enzyme substrate cocktail (phenacetin 50 μM, diclofenac 10 μM, S-mephenytoin 100 μM, dextromethorphan 5 μM, and midazolam 2.5 μM). The mixture was pre-incubated at 37°C for 5 min and 1 mM NAPDH was added to initiate reactions. After 15 min of incubation, acetonitrile with terfenadine was added to stop reactions and microsomal solutions were centrifuged at 14,000 rpm at 4°C for 5 min. For LC-MS/MS analysis, supernatants were injected on a Kinetex C18 column (2.1 × 100 mm, 2.6 μm particle size, Phenomenex, USA). The composition of the mobile phase was 0.1% formic acid in water (A) and 0.1% formic acid in acetonitrile (B).
# T1 sequence (P10635 whole entry): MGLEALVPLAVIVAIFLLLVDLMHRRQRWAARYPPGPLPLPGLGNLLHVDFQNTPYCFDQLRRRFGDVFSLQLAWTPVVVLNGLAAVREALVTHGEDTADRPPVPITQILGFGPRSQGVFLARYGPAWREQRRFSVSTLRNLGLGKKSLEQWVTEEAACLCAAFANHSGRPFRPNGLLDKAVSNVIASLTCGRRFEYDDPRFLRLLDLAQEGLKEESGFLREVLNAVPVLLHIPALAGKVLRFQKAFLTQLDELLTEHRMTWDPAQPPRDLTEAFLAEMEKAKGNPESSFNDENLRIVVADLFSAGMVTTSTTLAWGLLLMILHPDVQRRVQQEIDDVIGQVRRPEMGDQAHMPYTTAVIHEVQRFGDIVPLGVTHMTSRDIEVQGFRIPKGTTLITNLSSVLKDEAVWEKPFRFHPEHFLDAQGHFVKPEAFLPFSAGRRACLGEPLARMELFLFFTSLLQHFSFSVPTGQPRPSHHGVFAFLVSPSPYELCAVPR
structure (smiles),measurement,value
"CCC(C)(C)c1ccc(OCC(O)CN2CCCC2)c(C(C)(C)CC)c1.Cl (stereo not shown) [YIAD002, 1-(3-(2,4-Di-tert-pentylphenoxy)-2-hydroxypropyl)pyrrolidin-1-ium chloride]",IC50,> 10 µM
